Experimental data taken from a compilation of properties of binary mixtures (doi:10.1016/j.molliq.2022.121069).

Assay: xn = mol fraction of the nth substance listed
Conditions: 101.3 kPa

CCCC[N+](CCCC)(CCCC)CCCC.[Cl-] + CNCCO
Conditions	speed of sound, x1 = 0.091 [m/s]	speed of sound, x1 = 0.111 [m/s]	speed of sound, x1 = 0.1441 [m/s]	viscosity, x1 = 0.091 [mPa·s]	viscosity, x1 = 0.111 [mPa·s]	viscosity, x1 = 0.1441 [mPa·s]
293.15 K	–	1516.6	1521.4	–	34.4	47.4
298.15 K	–	–	1505.8	–	–	34.3
303.15 K	1482	1485.3	–	18.5	20.8	–
308.15 K	1466.3	1469.8	–	15.1	16.8	–
313.15 K	1450.5	1454.2	–	12.7	14.1	–
318.15 K	–	1438.9	1443.8	–	11.6	14.1
323.15 K	1419.5	1423.6	1428.6	8.93	9.5	11.8
328.15 K	1404.1	–	1413.5	7.38	–	10.3
333.15 K	1388.5	1393.1	1398.5	6.48	6.5	9.58

CC[N+](CC)(CC)CC.[Cl-] + CNCCO
Conditions	speed of sound, x1 = 0.0914 [m/s]	speed of sound, x1 = 0.1114 [m/s]	speed of sound, x1 = 0.1413 [m/s]	viscosity, x1 = 0.0914 [mPa·s]	viscosity, x1 = 0.1114 [mPa·s]	viscosity, x1 = 0.1413 [mPa·s]
293.15 K	1553.4	1565.5	–	20.5	21.9	–
298.15 K	1538	1550.1	1565.6	16.7	17.4	18.8
303.15 K	1522.5	–	1550.1	13.5	–	15.2
308.15 K	–	1519.5	1534.7	–	11.5	12.4
313.15 K	1491.9	1504.6	–	9.57	10	–
318.15 K	1476.9	1489.4	–	7.92	8.35	–
323.15 K	1461.5	–	–	6.5	–	–
328.15 K	–	1458.8	1473.8	–	5.78	6.23
333.15 K	1431	1444.6	1458.7	4.57	4.95	5.41
